{"source": "paper PMC4806491", "about": "“The milk-derived fusion peptide, ACFP, suppresses the growth of primary human ovarian cancer cells by regulating apoptotic gene expression and signaling pathways” (BMC Cancer, 2016)", "test_system": "primary ovarian cancer cells", "conditions": "48 h; for LOC441241 Ratio (ACFP/control): NM_441241", "note": "Read-outs that look alike come from different tables or passages of the source. Positions of bridges follow the written chain, without caps; N, C: chain ends. Residues, ends and D or L forms follow the SMILES beside them.", "experimental": "We utilized cDNA microarrays to observe the effect of ACFP on gene expression in primary ovarian cancer cells. Cells were treated with 0 (the vehicle group, as control), 5 × 10^6 g/L and 5 × 10^3 g/L ACFP, respectively, and cultured for 48 h at 37 °C in 5 % CO2. Cells were later digested and collected for total RNA extraction using Trizol. The RNA concentrations and purities were detected with a spectrophotometer. The experiments were performed in duplicate on a single total RNA preparation from the cells. Signal values were presented as the mean value of two replicate experiments. RNA samples were used to generate human whole genome expression profiling microarray (Yeli Bioscience Co., Ltd.; Shanghai, China). RNA was subsequently converted into digoxigenin-labeled complementary RNA and hybridized to a human genome microarray system (Human OneArray Microarray, from Phalanx Biotech Group, Taiwan). The chips were scanned by a GeeDom® LuxScan 10 K microarray scanner. LuxScan3.0 software was used to extract probe fluorescence signals and analyze images. Finally, the original data were processed by normalizing."}
{"molecule": "CC[C@H](C)[C@@H]1NC(=O)[C@H](CO)NC(=O)[C@@H]2CCCN2C(=O)[C@H](C)NC(=O)CNC(=O)[C@H](CC(C)C)NC(=O)[C@H](CCCCN)NC(=O)[C@H](CCCCN)NC(=O)[C@H](CCSC)NC(=O)[C@H](CCCNC(=N)N)NC(=O)[C@H](Cc2c[nH]c3ccccc23)NC(=O)[C@H](CCC(N)=O)NC(=O)[C@H](Cc2c[nH]c3ccccc23)NC(=O)[C@H](CCCNC(=N)N)NC(=O)[C@H](CCCNC(=N)N)NC(=O)[C@@H](NC(=O)[C@H](CCCCN)NC(=O)[C@@H](N)Cc2ccccc2)CSSC[C@@H](C(=O)N[C@H](C(=O)N[C@@H](CCCNC(=N)N)C(=O)N[C@@H](CCCNC(=N)N)C(=O)N[C@@H](C)C(=O)N[C@@H](Cc2ccccc2)C(=O)NCC(=O)NCC(=O)NCC(=O)NCC(=O)N[C@@H](CO)C(=O)N2CCC[C@H]2C(=O)NCC(=O)N2CCC[C@H]2C(=O)N[C@H](C(=O)N2CCC[C@H]2C(=O)N[C@@H](CC(N)=O)C(=O)O)[C@@H](C)CC)C(C)C)NC(=O)[C@H]([C@@H](C)O)NC1=O", "note": "[ACFP] (H-FKCRRWQWRMKKLGAPSITCVRRAFGGGGSPGPIPN-OH; disulfide 3-20; N-terminus and C-terminus assumed)", "values": [{"measurement": "LOC441241 Ratio (ACFP/control)", "setting": "High dose 5×10^-3 g/L", "result": 5.22}, {"measurement": "GTF2IP1 Ratio (ACFP/control)", "setting": "Low dose 5×10^-6 g/L, NM-002970", "result": 0.47}, {"measurement": "IGFBP5 Ratio (ACFP/control)", "setting": "Low dose 5×10^-6 g/L, NM-003488", "result": 0.45}, {"measurement": "MYLK Ratio (ACFP/control)", "setting": "Low dose 5×10^-6 g/L, NM-004638", "result": 0.33}, {"measurement": "NKX3-1 Ratio (ACFP/control)", "setting": "Low dose 5×10^-6 g/L, NM-004824", "result": 2.8}, {"measurement": "PLA2G5 Ratio (ACFP/control)", "setting": "Low dose 5×10^-6 g/L, NM-005322", "result": 0.36}, {"measurement": "POLH Ratio (ACFP/control)", "setting": "Low dose 5×10^-6 g/L, NM-005429", "result": 0.33}, {"measurement": "PSMA1 Ratio (ACFP/control)", "setting": "Low dose 5×10^-6 g/L, NM-005682", "result": 0.39}, {"measurement": "STAT5B Ratio (ACFP/control)", "setting": "Low dose 5×10^-6 g/L, NM-006777", "result": 3.24}, {"measurement": "STAT6 Ratio (ACFP/control)", "setting": "Low dose 5×10^-6 g/L, NM-006778", "result": 2.06}, {"measurement": "UPP1 Ratio (ACFP/control)", "setting": "Low dose 5×10^-6 g/L, NM-007378", "result": 0.48}, {"measurement": "TNFSF18 Ratio (ACFP/control)", "setting": "Low dose 5×10^-6 g/L, NM-008995", "result": 0.49}, {"measurement": "MAP4K4 Ratio (ACFP/control)", "setting": "Low dose 5×10^-6 g/L, NM-009448", "result": 0.36}, {"measurement": "BTF/BCLAF1 Ratio (ACFP/control)", "setting": "Low dose 5×10^-6 g/L, NM-009774", "result": 3.25}, {"measurement": "TMEFF1 Ratio (ACFP/control)", "setting": "Low dose 5×10^-6 g/L, NM-016522", "result": 3.33}, {"measurement": "RAB18 Ratio (ACFP/control)", "setting": "Low dose 5×10^-6 g/L, NM-022931", "result": 0.30}, {"measurement": "TCF/LEF1 Ratio (ACFP/control)", "setting": "Low dose 5×10^-6 g/L, NM-051176", "result": 0.36}, {"measurement": "PINX1 Ratio (ACFP/control)", "setting": "Low dose 5×10^-6 g/L, NM-054984", "result": 0.45}, {"measurement": "RINT-1 Ratio (ACFP/control)", "setting": "Low dose 5×10^-6 g/L, NM-060561", "result": 0.32}, {"measurement": "C17orf37 Ratio (ACFP/control)", "setting": "Low dose 5×10^-6 g/L, NM-084299", "result": 0.39}, {"measurement": "ZNF512 Ratio (ACFP/control)", "setting": "Low dose 5×10^-6 g/L, NM-084450", "result": 0.31}, {"measurement": "AKT1 Ratio (ACFP/control)", "setting": "Low dose 5×10^-6 g/L, NM_000207", "result": 0.29}, {"measurement": "ARHE Ratio (ACFP/control)", "setting": "Low dose 5×10^-6 g/L, NM_000390", "result": 2.99}, {"measurement": "BAG1 Ratio (ACFP/control)", "setting": "Low dose 5×10^-6 g/L, NM_000573", "result": 0.48}, {"measurement": "BAX Ratio (ACFP/control)", "setting": "Low dose 5×10^-6 g/L, NM_000581", "result": 3.73}, {"measurement": "BCL-xl Ratio (ACFP/control)", "setting": "Low dose 5×10^-6 g/L, NM_000598", "result": 0.28}, {"measurement": "C1QG Ratio (ACFP/control)", "setting": "Low dose 5×10^-6 g/L, NM_000714", "result": 2.02}, {"measurement": "CASP3 Ratio (ACFP/control)", "setting": "Low dose 5×10^-6 g/L, NM_000836", "result": 3.72}, {"measurement": "CCNB1 Ratio (ACFP/control)", "setting": "Low dose 5×10^-6 g/L, NM_000891, cyclinB1", "result": 0.30}, {"measurement": "TNFRSF8 Ratio (ACFP/control)", "setting": "Low dose 5×10^-6 g/L, NM_000943, first entry", "result": 2.05}, {"measurement": "TNFRSF8 Ratio (ACFP/control)", "setting": "Low dose 5×10^-6 g/L, NM_000943, second entry", "result": 2.02}, {"measurement": "CDC25C Ratio (ACFP/control)", "setting": "Low dose 5×10^-6 g/L, NM_000995", "result": 0.29}, {"measurement": "CDKN1A Ratio (ACFP/control)", "setting": "Low dose 5×10^-6 g/L, NM_001026", "result": 3.24}, {"measurement": "CDKN1A/p21 Ratio (ACFP/control)", "setting": "Low dose 5×10^-6 g/L, NM_001026, second entry", "result": 3.24}, {"measurement": "CKS2 Ratio (ACFP/control)", "setting": "Low dose 5×10^-6 g/L, NM_001164", "result": 3.67}, {"measurement": "DVL1 Ratio (ACFP/control)", "setting": "Low dose 5×10^-6 g/L, NM_001855", "result": 3.58}, {"measurement": "GRK4 Ratio (ACFP/control)", "setting": "Low dose 5×10^-6 g/L, NM_002868", "result": 0.42}, {"measurement": "GRK5 Ratio (ACFP/control)", "setting": "Low dose 5×10^-6 g/L, NM_002869", "result": 0.47}, {"measurement": "GRK6 Ratio (ACFP/control)", "setting": "Low dose 5×10^-6 g/L, NM_002870", "result": 0.49}, {"measurement": "GSTM4 Ratio (ACFP/control)", "setting": "Low dose 5×10^-6 g/L, NM_002948", "result": 2.25}, {"measurement": "GSTM5 Ratio (ACFP/control)", "setting": "Low dose 5×10^-6 g/L, NM_002949", "result": 3.55}, {"measurement": "IRF7 Ratio (ACFP/control)", "setting": "Low dose 5×10^-6 g/L, NM_003665", "result": 3.13}, {"measurement": "ITGA5 Ratio (ACFP/control)", "setting": "Low dose 5×10^-6 g/L, NM_003678", "result": 0.36}, {"measurement": "PKIA Ratio (ACFP/control)", "setting": "Low dose 5×10^-6 g/L, NM_005569", "result": 2.52}, {"measurement": "MAPK3/ERK1 Ratio (ACFP/control)", "setting": "Low dose 5×10^-6 g/L, NM_005595", "result": 0.36}, {"measurement": "MAPK8/JNK1 Ratio (ACFP/control)", "setting": "Low dose 5×10^-6 g/L, NM_005599", "result": 2.04}, {"measurement": "MAPK13/p38 delta Ratio (ACFP/control)", "setting": "Low dose 5×10^-6 g/L, NM_005603", "result": 2.91}, {"measurement": "PSMB8 Ratio (ACFP/control)", "setting": "Low dose 5×10^-6 g/L, NM_005696", "result": 2.97}, {"measurement": "TNFRSF1A Ratio (ACFP/control)", "setting": "Low dose 5×10^-6 g/L, NM_007132, first entry", "result": 3.50}, {"measurement": "TNFRSF1A Ratio (ACFP/control)", "setting": "Low dose 5×10^-6 g/L, NM_007132, second entry", "result": 3.50}, {"measurement": "ZNF12 Ratio (ACFP/control)", "setting": "Low dose 5×10^-6 g/L, NM_007559", "result": 2.07}, {"measurement": "BAT5 Ratio (ACFP/control)", "setting": "Low dose 5×10^-6 g/L, NM_007920", "result": 3.66}, {"measurement": "PABPN1 Ratio (ACFP/control)", "setting": "Low dose 5×10^-6 g/L, NM_008106", "result": 3.71}, {"measurement": "TNFRSF10B Ratio (ACFP/control)", "setting": "Low dose 5×10^-6 g/L, NM_008795", "result": 2.43}, {"measurement": "STK17B Ratio (ACFP/control)", "setting": "Low dose 5×10^-6 g/L, NM_009262", "result": 2.01}, {"measurement": "TRAF4 Ratio (ACFP/control)", "setting": "Low dose 5×10^-6 g/L, NM_009618", "result": 3.34}, {"measurement": "USP34 Ratio (ACFP/control)", "setting": "Low dose 5×10^-6 g/L, NM_009736", "result": 3.49}, {"measurement": "GOLGA5 Ratio (ACFP/control)", "setting": "Low dose 5×10^-6 g/L, NM_009950", "result": 2.46}, {"measurement": "SUI1 Ratio (ACFP/control)", "setting": "Low dose 5×10^-6 g/L, NM_010209", "result": 2.89}, {"measurement": "SPINT2 Ratio (ACFP/control)", "setting": "Low dose 5×10^-6 g/L, NM_010653", "result": 3.58}, {"measurement": "PIK3R5 Ratio (ACFP/control)", "setting": "Low dose 5×10^-6 g/L, NM_023533", "result": 0.39}, {"measurement": "CARD10 Ratio (ACFP/control)", "setting": "Low dose 5×10^-6 g/L, NM_029775", "result": 2.43}, {"measurement": "FLJ39616 Ratio (ACFP/control)", "setting": "Low dose 5×10^-6 g/L, NM_051275", "result": 3.34}, {"measurement": "GNG12 Ratio (ACFP/control)", "setting": "Low dose 5×10^-6 g/L, NM_055970", "result": 3.49}, {"measurement": "BCORL1 Ratio (ACFP/control)", "setting": "Low dose 5×10^-6 g/L, NM_063035", "result": 0.35}, {"measurement": "CARD14 Ratio (ACFP/control)", "setting": "Low dose 5×10^-6 g/L, NM_079092", "result": 2.13}, {"measurement": "BCL2L14 Ratio (ACFP/control)", "setting": "Low dose 5×10^-6 g/L, NM_079370", "result": 2.44}, {"measurement": "FLJ13848 Ratio (ACFP/control)", "setting": "Low dose 5×10^-6 g/L, NM_079829", "result": 3.28}, {"measurement": "SNARK Ratio (ACFP/control)", "setting": "Low dose 5×10^-6 g/L, NM_081788", "result": 3.08}, {"measurement": "C1QTNF6 Ratio (ACFP/control)", "setting": "Low dose 5×10^-6 g/L, NM_114904, first entry", "result": 3.57}, {"measurement": "C1QTNF6 Ratio (ACFP/control)", "setting": "Low dose 5×10^-6 g/L, NM_114904, second entry", "result": 3.43}, {"measurement": "LOC441241 Ratio (ACFP/control)", "setting": "Low dose 5×10^-6 g/L", "result": 3.48}]}
